Assay results published in PMC5393024, “Discovery and characterization of natural tropolones as inhibitors of the antibacterial target CapF from Staphylococcus aureus” (Scientific Reports, 2015).

Experiments:
CapF [1] = experiment: HPLC-based inhibition assay (CapE/CapF coupled reaction); format: biochemical, Staphylococcus aureus; details: 1 mM compound, 37 °C, 2 hours
Method: (§1) For that purpose, an HPLC-based assay monitoring the consumption of substrate and the appearance of product was employed (Fig. 2b)[12]. Whereas in the absence of 3-isopropenyl-tropolone the substrate was converted into product with nearly quantitative yield (91%), in the presence of 1 mM 3-isopropenyl-tropolone the peaks corresponding to substrate and product were largely absent (their combined areas were <18%). Instead, a large peak corresponding to the byproduct generated by the enzyme CapE under thermodynamic control was observed (80% yield as judged from the area under the curve). To confirm that inhibition of 3-isopropenyl-tropolone is specific for CapF we performed an additional experiment employing only CapE, which is the enzyme generating the substrate for CapF in the functional assay (Supplementary Information Figure S2).
For the HPLC-based inhibition assay, a solution containing 1.0 μM CapE, 0.02 μM CapF, 250 μM UDP-D-GlcNAc, 250 μM NADPH, and 1 mM compound in HBS buffer supplemented with 0.005% (v/v) Tween-20 and 5% (v/v) DMSO were incubated at 37 °C for 2 hours. The reaction was stopped by addition of 100 μL of ice-cold phenol/chloroform/isoamyl alcohol in a 25:24:1 […]. The supernatant containing the products of the reaction was mixed with 100 μL of chloroform and examined by HPLC using a CarboPac PA1 anion-exchange column (Dionex) as described previously. […]

CapE = experiment: HPLC assay employing only CapE; format: biochemical, Staphylococcus aureus; details: CapF not present
Method: as §1
Figure S2. Elution profile of compounds after incubation of the substrate UDP-D-GlcNAc with
CapE in the absence (red line) and presence (black line) of 3-isopropenyl-tropolone. In this
experiment CapF was not present. Experimental conditions are described in the Methods section.
The blue, red and green triangles indicate the elution peaks of product, substrate, and by-product,
(§2) (1 picture or pasted object on this page, not shown here)

CapF [2] = experiment: NADPH consumption assay (absorbance at 340 nm); format: biochemical, Staphylococcus aureus; details: 0.02 μM CapF, 1.0 μM CapE, 125 μM UDP-D-GlcNAc, 250 μM NADPH, 37 °C
Method: A second assay monitoring the consumption of NADPH corroborates the inhibitory effect of 3-isopropenyl-tropolone (Fig. 2c). This assay is sensitive to the NADPH consumed by the SDR domain during the second reaction catalyzed by CapF (reduction step). […] Nevertheless, additional experiments were required to corroborate that idea (see below).
The enzymatic performance of CapF was evaluated by examining the consumption of NADPH spectrophotometrically, or by monitoring the disappearance of substrate and the formation of product by HPLC[9][12]. First, the time-dependent consumption of NADPH (monitored from a decrease of adsorption at 340 nm) was carried out in 384-well plates at a final volume of 50 μL. The solution contained 1.0 μM CapE, 0.02 μM CapF, 125 μM UDP-D-GlcNAc (substrate), 250 μM NADPH and fragment compounds at various concentrations in HBS supplemented with 0.005% (v/v) Tween-20 and 5% (v/v) DMSO. Each reaction mixture was incubated at 37 °C and the absorption at 340 nm was measured with a plate reader (PHERAstar, BMG Labtech, Durham, NC).
Figure S7. (a) Structure of compounds employed. (b-d) Time course of NADPH consumption by CapF in the presence of (b) tropolone, (c) 4-isopropyl-tropolone, and (d) 2-Cl-tropone. Increasing the concentration of compounds decreases the rate of consumption of NADPH. (e-g) Inhibition after two hours for (e) tropolone, (f) 4-isopropyl-tropolone, and (g) 2-Cl-tropone. Concentration of CapE and CapF was 1.0 µM and 0.02 µM, respectively. Concentration of NADPH and UDP-D-GlcNAc was 250 µM and 125 µM, respectively. The change of absorbance was calculated with respect to a control assay in the absence of CapF.
as §2

[3] = system: CapF reconstituted with Zn^2+; experiment: FluoZin-3 binding competition assay; set-up: species or system Staphylococcus aureus
Method: Figure 3 Binding of 3-isopropenyl-tropolone to CapF requires Zn^2+. CapF (150 μM) reconstituted with Zn^2+ was titrated with 1.65 mM inhibitor in the absence (a) or the presence (b) of 1 mM EDTA. The upper panels correspond to the titration data, and the lower panels to the integrated binding isotherms. (c) Binding competition assay. CapF (1.0 μM) reconstituted with Zn^2+ in the presence of the Zn^2+-sensitive dye FluoZin-3 (1.0 μM) was titrated with 3-isopropenyl-tropolone (λEX = 490 nm; λEM = 520 nm).
Second, the fluorescence of the Zn^2+-specific indicator FluoZin-3[19][20] was examined in the presence of CapF. The signal of FluoZin-3 increases dramatically in the presence of Zn^2+ ions when the metal is accessible to the dye. […] In contrast, the fluorescence of FluoZin-3 with apo-CapF, or with holo-CapF in the presence of 3-isopropenyl-tropolone, was negligible.
Fluorescence measurements were carried out using the Zn^2+-sensitive dye FluoZin-3 (Life Technologies) in a buffer composed of 10 mM HEPES, 150 mM NaCl (pH 7.4) supplemented with 5% (v/v) DMSO at 25 °C. The fluorescence intensities were measured in a plate reader (PHERAstar, BMG Labtech, Durham, NC) with excitation and emission wavelengths set to 490 nm and 520 nm, respectively.
Figure S3. Zn2+ governs the binding of inhibitor to CapF. […]
from ZnCl2) with 1.65 mM 3-isopropenyl-tropolone. (b) Fluorescence of the Zn2+-sensitive dye […]

WT CapF = experiment: DSC thermal stability of WT CapF; format: binding, Staphylococcus aureus; details: 24 μM protein, 240 μM inhibitor
Method: Thermal stability of CapF was examined by DSC in a ultrasensitive VP-capillary micro-calorimeter (Microcal). Prior to the experiment the protein was equilibrated in a buffer composed of 50 mM HEPES (pH 7.5), 50 mM NaCl and 5% DMSO. The concentration of protein and inhibitor were adjusted to 24 μM and 240 μM, respectively. The samples were heated between 10 and 110 °C at a scan rate of 1 °C/min. Data analysis was carried out with ORIGIN7 using a two-state transition model.

## C=C(C)c1ccccc(=O)c1O [3-isopropenyl-tropolone]
CapF [1]
  yield of byproduct generated by CapE (area under the curve): 80%
CapF [1]; 91% product without inhibitor
  combined areas of substrate and product peaks: < 18%
CapE
  HPLC profile of the reaction products of CapE in presence of inhibitor: not altered
CapF [2]
  inhibition of NADPH consumption: rate of consumption of NADPH slowed down as the concentration of inhibitor increases
CapF [2]; listed as 3-isopropylen-tropolone
  inhibition of NADPH consumption: inhibited the consumption of NADPH in a concentration-dependent basis
[3]; CapF 1.0 μM, FluoZin-3 1.0 μM, 25 °C
  inflexion point of FluoZin-3 fluorescence signal vs concentration of compound: 51 µM
[3]; CapF 1 µM, compound 1.0 mM
  fluorescence of FluoZin-3 with holo-CapF in the presence of compound: negligible
WT CapF
  ΔTM (decrease in thermal stability): 5.2 ± 0.4 °C
WT CapF; WT CapF alone 59.9 ± 0.2
  TM: 54.7 ± 0.2 °C
